The text below walks through data of PMC6344987 (BMC Complementary and Alternative Medicine, 2019).

One data set deals with Sprague Dawley rats. The data set is described as follows: In vivo pharmacodynamic study: prothrombin time (PT) and INR in rat plasma after five days of oral treatment. To be noted: oral daily for five days, WF 0.5 mg/kg, PPE 100 mg/kg, EA 40 mg/kg, GvL 250 mg/kg, QUE 12.75 mg/kg, mean ± SD (n = 8); for INR: calculated from PT; for PT: plasma on fifth day. How it is done:
Adult Sprague Dawley laboratory rats were supplied by the Animal Facility of the University of […], Jordan). […] Rats were fasted overnight with free access to water. All experiments involving animals were conducted according to the institutional guidelines for the use of laboratory animals, which follows the guidelines of the Federation of European Laboratory Animal Science Associations (FELASA). The used animals were euthanized with cervical dislocation at the end of each experiment. The study protocol was revised and approved by the Committee of Scientific Research of the University of Petra (Approval number: 4-2016/2017, Date: 22/06/2017). The rats were weighed and randomized into ten groups (n = 8) and acclimatized for ten days before the experiment. Oral stainless steel gavage needle (Harvard Apparatus, Kent, UK) was used for oral administration of the treatments. Groups were treated daily for five days as following; group 1 received oral 0.5% CMC solution and served as a negative control. […] Group 3 received 100 mg/kg pomegranate peel extract suspension. […] Group 7 received 250 mg/kg guava leaves extract suspension. […] Plasma was separated, transferred directly into labeled Eppendorf tubes for PT and INR analysis. Reconstituted thromboplastin was added to 100 μl of each plasma sample in pre-warmed cuvette at 37 °C. […] INR was calculated from the detected PT according to the manufacturer's instructions.

The test system of another data set is CYP2C9. The data set is described as follows: P450-Glo CYP2C9 (Luciferin-H) activity in primary isolated rat hepatocytes. Format: in vitro ADME. The settings on record: n = 6; for CYP2C9 activity relative to untreated isolated hepatocytes, in combination with warfarin: combined with warfarin 3 μg/ml, pomegranate peel extract 120, ellagic acid 48, guava leaves extract 294, quercetin 15 μg/ml; for CYP2C9 activity relative to untreated isolated hepatocytes: substance alone, sulfamethoxazole 130, warfarin 3, pomegranate peel extract 120, ellagic acid 48, guava leaves extract 294, quercetin 15 μg/ml. On the procedure: (§1) The liver of anaesthetized rat with inhaled isoflurane were perfused with collagenase enzyme as described by. Liver cells were dispersed gently in a sterile petri dish, and prepared for hepatocyte culture as described elsewhere. Cell were plated at a final concentration of 50,000 cell/100 μl and seeded in 96 well plates (100 μl). Cells were left to recover and grow overnight prior to the day of experiment.
(§2) Directly after the addition of treatments, 25 μl of the lumenogenic substrate (Luciferin-H, Luciferin-ME or Luciferin-IPA) was added to each well. The plates were incubated at 37 °C for appropriate time according to manufacture protocol (Promega, USA). Later, 25 μl from culture media from each well was transferred into 96-well opaque white luminometer plate and equal amount of Luciferin detection reagent was added to each well to initiate the luminescent reaction. The reaction was allowed for 20 min at room temperature away from light. Finally, luminescence was read using GloMax®-Multi Detection System (Promega, USA).

Another data set concerns CYP2C8. The data set is described as follows: P450-Glo CYP2C8 (Luciferin-ME) activity in primary isolated rat hepatocytes. The data set is classed as in vitro ADME. To be noted: n = 6; for CYP2C8 activity relative to untreated isolated hepatocytes, in combination with warfarin: combined with warfarin 3 μg/ml, pomegranate peel extract 120, ellagic acid 48, guava leaves extract 294, quercetin 15 μg/ml. On the procedure: as §1, §2

A further data set relates to CYP3A4. The data set is described as follows: P450-Glo CYP3A4 (Luciferin-IPA) activity in primary isolated rat hepatocytes. The data set is classed as in vitro ADME. The settings on record: n = 6; for CYP3A4 activity relative to untreated isolated hepatocytes, in combination with warfarin: combined with warfarin 3 μg/ml, pomegranate peel extract 120, ellagic acid 48, guava leaves extract 294, quercetin 15 μg/ml; for CYP3A4 activity relative to untreated isolated hepatocytes: substance alone, ketoconazole 1, warfarin 3, pomegranate peel extract 120, ellagic acid 48, guava leaves extract 294, quercetin 15 μg/ml. How it is done: as §1
as §2, with “Doses of chemicals selected for in vitro testing on primary cultured hepatocyte mitochondrial activity were estimated after literature review and preliminary work in order to obtain the IC50 values of tested compounds (data not shown). […] Directly” for “Directly”

A short description of another data set: in vivo. To be noted: rat, po, 0.5 mg/kg. How it is done: On the fifth day, blood samples were collected from the 18 h fasted rats at different time intervals namely; at zero time, 0.5, 1, 2, 3, 4, 6, 8, 12, 24, 48 and 72 h from all groups and drawn into EDTA micro tubes. The micro tubes were centrifuged at 7000 RPM for 10 min. Plasma was separated, transferred directly into labeled Eppendorf tubes and stored at − 20 °C until requested for HPLC analysis.
Reversed-phase high-performance liquid chromatography (HPLC) analysis was used to separate samples using Finnigan surveyor system (Thermo Electron Corporation, San Jose, California, USA) on a hypersil™ BDS C-18 Column (150 mm × 4.6 mm, 5 μm) (Thermo Electron Corporation, San Jose, California, USA) and quantified using ultraviolet detection at 310 nm (UV-VIS Plus Detector). The mobile phase was a mixture of 60% acetonitrile HPLC grade and 40% water containing 1 ml triethylamine/l and phosphoric acid (pH 3.0) with a flow rate of 1.0 ml/min (LC pump plus) using 20 μl injection volume (Autosampler Plus). Metronidazole benzoate was used as an internal standard. ChromQuest 4.2.34 chromatography data system was implemented for data acquisition and handling. […] Consequently, different concentrations of working solutions were prepared for plasma spiking by mixing 25 μl of working solutions in 975 μl of plasma (Fig. 1, Table 1). […] The supernatant was then analyzed using an in house validated HPLC method at the Faculty of Pharmacy and Medical Sciences, University of Petra, Amman, Jordan (MSc thesis, Farah Al-Mamoori, 2016, University of Petra).
The calculated pharmacokinetic parameters presented in the current study were maximum plasma concentration (Cmax), area under the curve (AUC), area under the first moment curve (AUMC), mean residence time (MRT), half-life (t0.5), clearance (CL), volume of distribution (Vz), time at which Cmax was observed (Tmax) and elimination rate constant (Kel).

Molecules are shown by their SMILES.

Consider `O=c1c(O)c(-c2ccc(O)c(O)c2)oc2cc(O)cc(O)c12` [QUE, quercetin hydrate], for which, in the data set with Sprague Dawley rats, the INR was 1.39 ± 0.09 and the PT was 22.5 ± 1.20 s. Besides, in the data set on CYP2C9, the “CYP2C9 activity relative to untreated isolated hepatocytes, in combination with warfarin” value is reported as “inhibited” and the “CYP2C9 activity relative to untreated isolated hepatocytes” value is “inhibited”. In addition, the “CYP2C8 activity relative to untreated isolated hepatocytes, in combination with warfarin” value in the data set with CYP2C8 is “inhibited”. In addition, the “CYP2C8 activity relative to untreated isolated hepatocytes” value in the data set with CYP2C8 (substance alone, trimethoprim 30, warfarin 3, pomegranate peel extract 120, ellagic acid 48, guava leaves extract 294, quercetin 15 μg/ml) is “inhibited”. In addition, in the data set on CYP3A4, the “CYP3A4 activity relative to untreated isolated hepatocytes, in combination with warfarin” value was “inhibited” and the “CYP3A4 activity relative to untreated isolated hepatocytes” value was “inhibited”.

Usually AUC stands for concentration integrated over time. Higher therefore signals high exposure. One may read the Cmax as the highest concentration seen after dosing. A word on the MRT: it is the average time that molecules of a dose stay in the body. Usually Tmax stands for the time at which the peak concentration occurs. The Vd/F is the apparent distribution volume after extravascular dosing. As a reminder, the CL/F is the apparent clearance, not corrected for the fraction that reaches the circulation. On to `CC(=O)CC(c1ccccc1)c1c(O)c2ccccc2oc1=O` (centres unmarked) [WF, Warfarin], for which, in the data set on Sprague Dawley rats, the INR is 19 ± 1 and the PT came to 191 ± 12 s. Further, in “in vivo” (Sprague-Dawley), the area under the curve (AUC) was 107 µg·h/mL, the Cmax amounted to 3670 ± 663 ng/mL, the MRT is 25 ± 5 h and the Tmax is 6 ± 8 h. This compound also displayed a Vd/F in “in vivo” (Sprague-Dawley) of 0.035 ± 0.015 L. This compound also came in with a CL/F in “in vivo” of 1.45 ± 0.5 mL/h.

Turning to `CC(=O)N1CCN(c2ccc(OCC3COC(Cn4ccnc4)(c4ccc(Cl)cc4Cl)O3)cc2)CC1` (centres unmarked) [ketoconazole, reference compound], in the data set on CYP3A4, the “CYP3A4 activity relative to untreated isolated hepatocytes” value is “significantly reduced”.

As to `O=c1oc2c(O)c(O)cc3c(=O)oc4c(O)c(O)cc1c4c23` [EA, ellagic acid], in the data set on Sprague Dawley rats, the INR is 1.43 ± 0.10 and the PT stood at 23 ± 1.31 s. Besides, in the data set with CYP2C9, the “CYP2C9 activity relative to untreated isolated hepatocytes, in combination with warfarin” value is “significantly inhibited” and the “CYP2C9 activity relative to untreated isolated hepatocytes” value is recorded as “significant inhibition”. For the same compound, the “CYP2C8 activity relative to untreated isolated hepatocytes, in combination with warfarin” value in the data set with CYP2C8 is on record as “significantly inhibited”. Further, the “CYP3A4 activity relative to untreated isolated hepatocytes, in combination with warfarin” value in the data set on CYP3A4 is reported as “significantly inhibited”.
